# “Also recorded” adds a separate entry of the source.
# Columns and labels:
# [1] = test system: neointimal hyperplasia in rabbit carotid arteries; assay: Restenosis after balloon angioplasty with ceramide-coated embolectomy catheter balloon; format: in vivo, New Zealand white rabbits; details: rabbit carotid artery, 2 weeks post balloon injury
# Description: Experiments were designed to evaluate the therapeutic potential of ceramide-coated embolectomy catheters upon restenosis after balloon angioplasty. Initial studies assessed the extent of restenosis in rabbit carotid arteries after balloon angioplasty as a function of time. Animals were sacrificed 1, 2, 4 and 6 weeks after balloon injury. Marked neointimal hyperplasia was observed as early as 1 week and peaked at 4 weeks (FIG. 2A). […] FIGS. 2B-E illustrate hematoxylin and eosin stained cryostat sections of rabbit carotid arteries. […] Furthermore, it may be theorized that the effects of ceramide are due to biochemical actions and not lipophilic properties.
# Initial experiments optimized the methods to induce restenosis after angioplasty in carotid arteries from New Zealand white rabbits. Twenty-one rabbits were divided into three experimental groups, undergoing either balloon angioplasty with a vehicle-treated catheter, a C6-ceramide-treated catheter or a dihydro-C6-ceramide-treated catheter. Each rabbit underwent identical procedures to denude the common carotid artery of endothelium and establish the cellular conditions to promote restenosis. The right common carotid served as the sham control while the left carotid served as the experimental side. […] FIG. 2A represents the time course of restenosis after angioplasty while FIGS. 2B-2E depict representative H/E stained sections. […] The scale for these photomicrographs is 200 microns. FIG. 2F quantifies the extent of restenotic lesions.
# [2] = test system: PCNA positive vascular smooth muscle cells; assay: PCNA immunohistochemistry of carotid arteries after angioplasty; format: in vivo, rabbit; details: neointimal layer, coated balloon-injured carotid artery (balloon-injured 2.8%±0.1%, control 0.2%±0.1%)
# Description: The effects of ceramide treatment upon VSM cell growth in vivo were also investigated. Imunohistochemical techniques were employed to identify VSM using smooth muscle cell-specific actin antibody (FIGS. 4A-B) and cell growth using proliferating cell nuclear antigen (PCNA) antibody (FIGS. 4C-F). […] PCNA is synthesized in early G1 and S phases of the cell cycle, and thus can be used as a marker for cell proliferation. In FIGS. 4C-F, representative photomicrographs depicting PCNA positive staining are shown for control, balloon-injured, ceramide-treated and dihydroceramide-treated carotid arteries, respectively. […] C6-ceramide (0.6%±0.2%) but not dihydro-C6-ceramide (1.9%±0.3%) diminished the number of PCNA positive cells in the neointimal layer but not in the medial layer of the carotid artery.
# Specifically, in FIG. 4, ceramide-treated catheters reduced PCNA expression in vascular smooth muscle cells after angioplasty. Smooth muscle actin expression was analyzed by immunohistochemistry utilizing a monoclonal anti-alpha smooth muscle antibody, and PCNA positive cell numbers were assessed with a primary mouse monoclonal IgG2a antibody for PCNA. […] These immunohistochemical micrographs are representative of four separate experiments. […]
# [3] = test system: restenotic lesions after balloon angioplasty; assay: Restenosis after balloon angioplasty, ceramide delivered in solution by infusion-type catheter; format: in vivo
# Description: It is noted that infusion-type catheters have the advantage to deliver ceramide in a BSA vehicle at a discrete dose to the site of arterial injury. It was thus determined whether ceramide delivered by solution using an infusion-type catheter is also effective in reducing restenosis as ceramide delivered using a catheter with a gel coated balloon tip. The balloon at the tip of a 4F arterial bilumen irrigation embolectomy catheter was inflated to a diameter equivalent to that of the earlier experiments. Three infusions of 10 μM C6-ceramide for 1 minute each reduced restenosis after balloon angioplasty by 39%. Dihydro-C6-ceramide at an equivalent dose had no effect upon restenotic lesions. These studies further support the novelty and efficacy of ceramide-coated balloon catheters as intra-arterial site-specific delivery devices.
# [4] = Ceramide transfer from balloon catheter to carotid artery ([3H]C6-ceramide tracer, TLC, in situ autoradiography); format: in vivo, rabbit
# Method: The inability of experimentally effective therapies to succeed in clinical trials is often the consequence of sub-optimal doses of therapeutics being delivered to the site of injury for the appropriate duration. Moreover, the efficacy of therapy may be a consequence of biomechanical force transferring ceramide from the inflated balloon to the site of vascular lesions. Therefore, experiments were conducted to quantify ceramide transfer between the balloon and the carotid artery; the pharmacokinetics of ceramide transfer and delivery from the balloon catheter to the damaged artery was assessed. Using [^3H]C6-ceramide as a tracer, it was calculated that 70±10 nmol of C6-ceramide was applied to the balloon as a gel from a solution of 5 μmol of C6-ceramide. […] This translates to roughly 58 nmol of C6-ceramide being transferred from the balloon catheter during the angioplasty procedure. To test whether inflation of the balloon within the carotid artery was essential for optimal transfer of the ceramide, the surgical procedure was performed using noninflated balloons. The recovered ceramide mass on the inserted but noninflated balloon was 14±3 nmol. Rabbit carotid arteries treated with radiolabeled lipid were homogenized, and lipid products were separated by thin-layer chromatography (TLC) (FIG. 3A). The mass of intact ceramide isolated 15 minutes after angioplasty was 2.7±0.4 nmol for inflated balloon treatments and 0.7±0.2 nmol for noninflated balloon treatments. […] As the transferred ceramide was initially delivered to 0.0365 cm^3 of carotid artery luminal volume, the effective concentration of ceramide at the site of balloon injury is estimated to be 1.5 mmol/L. Thus, an effective and reproducible dose of ceramide can be delivered to the damaged artery as a consequence of the balloon inflation.
# In situ autoradiography was utilized to document arterial penetrance for [^3H]C6-ceramide transferred from the balloon catheter after angioplasty (FIGS. 3B through 3D). […] This increase in pixel intensity reflects an increase in intact ceramide, as at this time point 89±4% of the radiolabel comigrates with authentic C6-ceramide standards. Pixel intensity was more intense in inflated (panel C) versus noninflated (panel D) arteries. Expressed as pixel density per square millimeter for 10 randomly selected blocks with background values subtracted, medial staining was increased 4.7±0.2-fold for ceramide-coated inflated versus noninflated balloons. Again, this supports the conclusion that balloon inflation leads to maximal delivery and penetrance.
# The degradation of the rapidly intercalated radiolabeled ceramide by TLC was also assessed. For the 15-minute postangioplasty time point, 89±4% of the TLC-separated lipid comigrated with authentic C6-ceramide standards. This corresponded to a recovered mass of 2.7±0.4 mnol of ceramide. At 60 minutes after angioplasty, 1.3±0.6 nmol of ceramide was recovered. Thus, 50% radiolabel can still be recovered as intact ceramide in 1 hour. This decrease in ceramide mass corresponded to an increase in TLC-separated gangliosides and cerebrosides but not sphingosines.
# [5] = test system: primary VSM isolated from rabbit carotid arteries; assay: Apoptosis by fluorescence-activated cell sorting after propidium iodide staining; format: cell-based; details: 100 nM
# Description: Ceramide treatment correlated with growth arrest at G0G1and not apoptosis in these smooth muscle-like pericytes. […] Thus, the therapeutic efficacy of cell-perneable ceramide in restenosis includes its ability to arrest VSM growth without inducing significant apoptosis.
# neointimal hyperplasia = assay: Angioplasty-induced injury, other cell-permeable ceramide derivatives; details: in vivo
# Description: Other cell-permeable ceramide derivatives can also limit neointimal hyperplasia.
# [6] = test system: restenosis / thrombus formation; assay: Anticoagulation therapy (Lovenox) and thrombus formation with ceramide balloon angioplasty; format: in vivo; details: ceramide-treated balloon angioplasty
# Description: To prevent thrombus formation, patients routinely receive anti-coagulants prior to percutaneous transluminal coronary angioplasty. Thus, the consequences of anticoagulation therapy on the effectiveness of ceramide therapy were investigated.
# PKBα = PKBα phosphorylation in excised carotid arteries after angioplasty (Western blot); format: in vivo; details: ceramide-coated balloon angioplasty, rabbit carotid arteries
# Method: (§1) Thus, to elucidate mechanisms by which ceramide prevents restenosis, the phosphorylation states of ERK2 and PKBα were investigated using freshly excised carotid arteries after angioplasty (FIG. 5). Phosphorylation of ERK2 and PKBα were increased at 15 minutes and 24 hours post-balloon injury. The sustained phosphorylation of these kinases most likely reflects continuous remodeling of damaged arteries. […] Thus, acute ceramide therapy may directly modulate kinases or regulate putative ceramide-activated protein phosphatases that down-regulate these signaling pathways.
# (§2) Specifically, in FIG. 5, ERK2 and PKBα phosphorylation was diminished after ceramide-coated balloon angioplasty in rabbit carotid arteries. Panel A depicts a representative Western blot for ERK-2 and PKBα probed using phosphorylation-specific antibodies. Lysates from NIH3T3 cells treated with or without PDGF were used as positive and negative controls, respectively. This immunoblot is representative of similar experiments using a total of 8 animals. Panels B-C quantifies the immunoblot data.
# ERK2 = ERK2 phosphorylation in excised carotid arteries after angioplasty (Western blot); format: in vivo; details: ceramide-coated balloon angioplasty, rabbit carotid arteries
# Method: as §1, §2
# [7] = test system: A7r5 aortic smooth muscle cells; details: cited from earlier work
# [8] = test system: rat glomerular mesangial cells; details: cited from earlier work
# [9] = 15 minutes after angioplasty, inflated balloon
compound,measurement,setting,value
"CCCCCCCCCCCCCCC[C@@H](O)[C@H](CO)NC(=O)CCCCC [dihydro-C6-ceramide, reference compound]",effect on neointimal hyperplasia / restenosis after balloon injury,[1],did not reduce restenosis
same,effect on neointimal hyperplasia / restenosis after balloon injury,[1]; listed as dihydro-CC6-ceramide,not
same,percentage of PCNA positive cells,[2],1.9%±0.3%
same,effect upon restenotic lesions,[3]; equivalent dose,had no effect
[^3H]C6-ceramide [reference compound],radiolabel comigrating with authentic C6-ceramide standards (TLC),[4]; 15 minutes after angioplasty,89±4%
same,arterial penetrance (in situ autoradiography),[4]; [9],observed throughout the medial layers of the artery
same,"increase in medial staining (pixel density per square millimeter), inflated versus noninflated balloons","[4]; autoradiography, 10 randomly selected blocks, background subtracted",4.7±0.2 fold
C=C1[C@@H](O)[C@@H]2O[C@]3(CC[C@H](/C=C/[C@@H](C)[C@@H]4CC(C)=C[C@@]5(O[C@H](C[C@@](C)(O)C(=O)O)CC[C@H]5O)O4)O3)CC[C@H]2O[C@@H]1[C@@H](O)C[C@H](C)[C@H]1O[C@@]2(CCCCO2)CC[C@H]1C [okadaic acid],apoptosis,[5]; 24 hours,52%
same,apoptosis,[5]; 40 hours,69%±2%
CCCCCCCCCCCCC/C=C/[C@@H](O)[C@H](CO)N(C)C [dimethylsphingosine],effect on angioplasty-induced injury,neointimal hyperplasia,effective in limiting angioplasty-induced injury
CCCCCCCCCCCCC/C=C/[C@@H](O)[C@H](CO)NC(=O)CCCCC [C6-ceramide],thrombus formation,[6],Neither ceramide- nor vehicle-treated balloon angioplasty induced thrombus formation
same,effect on neointimal hyperplasia / restenosis after balloon injury,[1],significantly reduced the neointimal hyperplasia; also recorded: blocked neointimal hyperplasia
same,inhibition of balloon-induced neointimal formation (reduction of the neointimal/medial ratio),[1],92%
same,effective concentration of ceramide at the site of balloon injury,[4]; 0.0365 cm^3 carotid artery luminal volume,~1.5 mmol/L
same,recovered mass of ceramide,[4]; 15-minute postangioplasty time point,2.7±0.4 mnol
same,radiolabel comigrating with authentic C6-ceramide standards (TLC),[4]; 15 minutes after angioplasty,89±4%
same,mass of intact ceramide isolated from carotid artery,[4]; [9],2.7 ± 0.4 nmol
same,mass of intact ceramide isolated from carotid artery,"[4]; 15 minutes after angioplasty, noninflated balloon",0.7 ± 0.2 nmol
same,recovered mass of ceramide,[4]; 60 minutes after angioplasty,1.3 ± 0.6 nmol
same,amount remaining on the balloon,[4]; after insertion and inflation,12 ± 2 nmol
same,amount applied to the balloon as a gel,"[4]; from a solution of 5 μmol of C6-ceramide, [3H] tracer",70 ± 10 nmol
same,radiolabel recovered as intact ceramide,[4]; in 1 hour,50%
same,amount transferred from the balloon catheter during angioplasty,[4]; inflated balloon,roughly 58 nmol
same,recovered ceramide mass on the balloon,[4]; inserted but noninflated balloon,14 ± 3 nmol
same,percentage of PCNA positive cells,[2],0.6%±0.2%
same,reduction of restenosis after balloon angioplasty,"[3]; three infusions of 10 μM for 1 minute each, BSA vehicle",39%
same,phosphorylation state of PKBα,PKBα,reduced below basal activation levels; also recorded: diminished
same,phosphorylation state of ERK2,ERK2,reduced below basal activation levels; also recorded: diminished
same,effect on tyrosine kinase receptor- and G-protein receptor-linked mitogenesis,[7],inhibit
same,effect on tyrosine kinase receptor- and G-protein receptor-linked mitogenesis,[8],inhibit
